According to patent US6627646B2 (Sepracor Inc., priority 2001, dated 2003):

Legend:
[1] = XRPD (Rietveld) polymorph determination of samples made by literature processes; assay type: physicochemical; details: samples generated following referenced literature procedures; validated XRPD method
Text: A Rietveld analysis was developed that allowed quantitative determination of Form B in Form A down to a detection limit at 5%. Upon analysis, it became apparent that the desired polymorph, in any reasonable degree of purity, could not be produced by the known procedures, and indeed, even a specific ratio of polymorphs was not consistently produced by the known procedures. As discussed above, such a situation is highly undesirable from both a medical and a regulatory standpoint.
All prior processes for producing norastemizole free base, described in art known to the applicants, were examined. The samples were generated following the referenced procedures and were tested using the validated XRPD method.

[2] = factor between polymorphs; cited from earlier work

| Structure (SMILES) | Polymorph Results, % Form B [1] | difference in bio-activity between form A and form B [2] |
| --- | --- | --- |
| Fc1ccc(Cn2c(NC3CCNCC3)nc3ccccc32)cc1 [H1632-5A] | 90% | – |
| Fc1ccc(Cn2c(NC3CCNCC3)nc3ccccc32)cc1 [R1632-7A] | 86% | – |
| Fc1ccc(Cn2c(NC3CCNCC3)nc3ccccc32)cc1 [H1632-30A] | 100% | – |
| Fc1ccc(Cn2c(NC3CCNCC3)nc3ccccc32)cc1 [H1632-4A] | 91% | – |
| Fc1ccc(Cn2c(NC3CCNCC3)nc3ccccc32)cc1 [H1632-6A] | 100% | – |
| CCCCCCCCCCCCCCCC(=O)OC[C@@H](NC(=O)C(Cl)Cl)[C@H](O)c1ccc([N+](=O)[O-])cc1 [Chloramphenicol-3-palmitate] | – | eight |
